Results taken from PMC11768370, “Etodolac Single Dose Metabolic Profile Elucidation: Pharmacokinetics and Adverse Events in Healthy Volunteers” (Pharmaceuticals, 2025).

Test: Drug stability in biological fluid (LC-MS/MS method validation)
Format: in vitro ADME
Conditions: human plasma, LQC and HQC; freshly prepared, post-processing (auto-injector, 73:43 hours), short-term (72:21 hours), freeze-thaw (4 cycles) at -20 °C and -70 °C, long-term 90 days at -20 °C and -70 °C; demonstrating stability
Protocol: criteria for RE and CV must not exceed 15% for QC and 20% for LLOQ. All stability assays were performed to cover the conditions anticipated for handling real samples: freshly prepared, post-processing, short-term, freeze–thaw, and long-term were evaluated at concentrations of LQC and HQC. RE and CV were used to check possible variations.
2.4. Determination of Etodolac Pharmacokinetic
Following Food and Drug Administration (FDA) guidelines, blood samples were drawn up to a period of three to ﬁve times the terminal elimination half-life (t1/2), and the mean AUC0–t/AUC0–∞ ratio was required to be higher than 80%. The area under the concentration–time curve (AUC0–t) was calculated from time 0 to time t. The total area under the curve (AUC0–∞) was obtained up to […], and extrapolations were performed using the last measurable concentration and the terminal elimination rate constant (Ke). The terminal elimination rate constant, Ke, was estimated from the slope of the terminal […] of the plasma of the etodolac concentration–time curve (by means of the linear regression method) adjusted in the last three values. The terminal elimination half-life, t1/2, was then obtained as 0.693/Ke. […]

With CCc1cccc2c3c([nH]c12)C(CC)(CC(=O)O)OCC3 (stereo not shown) [Etodolac] the “drug stability in biological fluid: precision and accuracy values” was “below 15%”.
